Laboratory results: US20150368248A1, “2-SUBSTITUTED-6-BIARYLMETHYLAMINO-9-CYCLOPENTYL-9H-PURINE DERIVATIVES, USE THEREOF AS MEDICAMENTS, AND PHARMACEUTICAL COMPOSITIONS” (UNIVERZITA PALACKEHO V OLOMOUCI, priority 2013, published 2015)
Read-outs that look alike come from different tables or passages of the source.

Assays:
[1] = test system: caspase-3/7 activity in Hep3B cell line; test: One-step cellular caspase-3/7 activity assay; format: cell-based, human; conditions: 24 hours, 0 nM = 1.00
Procedure: (§1) Measurements of proapoptotic properties of new compounds were based on quantification of enzymatic activities of caspases, concretely caspases-3/7. Activity of cellular caspase-3/7 was measured according to Carrasco et al., 2003, BioTechniques, 34(5): 1064-67. Briefly, Hep3B and PLC/PRF/5 cells were incubated in the densities of 10000 cells/well in a 96-well plate overnight. Next day, the compounds in appropriate concentrations were added and cells were incubated for the 24 hours. After incubation, 3× caspase-3/7 assay buffer (150 mM HEPES pH 7.4, 450 mM NaCl, 150 mM KCl, 30 mM MgCl2, 1.2 mM EGTA, 1.5% Nonidet P40, 0.3% CHAPS, 30% sucrose, 30 mM DTT, 3 mM PMSF) with 150 μM Ac-DEVD-AMC as a substrate (Sigma-Aldrich) was added to the wells and plates were incubated at […]. The caspase-3/7 activity was measured after 6 hours using Fluoroskan Ascent microplate reader (Labsystems) at 346 nm/442 nm (excitation/emission).

[2] = test system: caspase-3/7 activity in PLC/PRF/5 cell line; test: One-step cellular caspase-3/7 activity assay; format: cell-based, human; conditions: 24 hours incubation, relative to 0 nM = 1.00
Procedure: as §1

[3] = test system: HUH-7; test: MTT cytotoxicity assay (Example 30); format: cell-based; conditions: Homo sapiens, Huh-7, 72 h; MTT, three days after drug addition; read-out: Inhibitory concentration IC50, HUH-7
Procedure: (§2) Cytotoxicity of the compounds is the major property determining their anticancer effect in vivo. One of the parameters used, as the basis for cytotoxicity assays, is the metabolic activity of viable cells.
(§3) We have been using the following cell lines: HUH-7 and PLC/PRF/5 cell lines were maintained in DMEM supplemented with 10% fetal bovine serum, penicillin (100 U/ml) and streptomycin (100 μg/ml). […] HepG2 cell line was maintained in EMEM supplemented with 10% fetal bovine serum, sodium pyruvate (0.11 g/1), penicillin (100 U/ml) and streptomycin (100 μg/ml). All cell lines were cultivated at 37° C. in 5% CO2. For cytotoxicity assays, 3000 cells (10000 cells in case of HepG2 cell line) were seeded into each well of 96 well plate and the next day tested compounds were added at various concentrations in triplicates. Three days after drug addition MTT stock solution (5 mg/ml) was added into each well and incubated for 4 h. After this incubation period, produced formazan was dissolved by DMSO and final absorbance was measured at 570 nm with Synergy H4 Hybrid Multi-Mode Microplate Reader.

[4] = test system: HCC-1.1 (3sp); test: MTT cytotoxicity assay (Example 30); format: cell-based; conditions: Homo sapiens, 72 h; MTT, three days after drug addition; read-out: Inhibitory concentration IC50, 3sp
Procedure: as §2, §3

[5] = test system: PLC/PRF/5; test: MTT cytotoxicity assay (Example 30); format: cell-based; conditions: Homo sapiens, PLC-PRF-5, 72 h; MTT, three days after drug addition; read-out: Inhibitory concentration IC50, PLC/PRF/5
Procedure: as §2, §3

[6] = test system: HCC-1.2 (3p); test: MTT cytotoxicity assay (Example 30); format: cell-based; conditions: Homo sapiens, HCC-1.2, 72 h; MTT, three days after drug addition; read-out: Inhibitory concentration IC50, 3p
Procedure: as §2, §3

[7] = molecular target: T1, CDK1/cyclin B (Homo sapiens, UniProt P06493); test: Kinase inhibition assay, recombinant kinase, [γ-33P]ATP; format: biochemical
T1 construct: made in house; host or cells: Sf9 insect cells (baculovirus)
Procedure: CDK2/Cyclin E kinase was produced in Sf9 insect cells via baculoviral infection and purified on a NiNTA column (Qiagen). CDK5/p35, CDK7Cyclin H/MAT1 and CDK9/Cyclin T1 was purchased from ProQinase GmbH. […] The reactions were stopped by adding 5 μL of 3% aq H3PO4. Aliquots were spotted onto P-81 phosphocellulose (Whatman), washed 3× with 0.5% aq H3PO4 and finally air-dried.
CDK1/cyclin B and CDK2/cyclin E kinases were produced in Sf9 insect cells via baculoviral infection, while CDK5/p35, CDK7/cyclin H/MAT1, and CDK9/cyclin T1 were purchased from ProQinase (Freiburg, Germany) and assayed as described previously (35). The kinase reactions were assayed with 1 mg/ml histone H1 (for CDK2 and CDK5) or (YSPTSPS)2KK peptide (for CDK7 and CDK9) in the presence of 15/0.15/1.5/1.5 […] ATP (for CDK2/CDK5/CDK7CDK9), […] [γ-^33P]ATP and of the test compound in a final volume of […]. The reaction buffer contained 60 mM HEPES-NaOH, pH 7.5, 3 mM MgCl2, 3 mM MnCl2, 3 mM Na-orthovanadate, 1.2 mM DTT, 2.5 mg/50 ml PEG20.000. The reactions were stopped by adding […] of 3% H3PO4. Aliquots were spotted onto P-81 phosphocellulose (Whatman, GE Healthcare Biosciences, Pittsburgh, USA), washed 3 times with 0.5% H3PO4 and finally air-dried. Kinase inhibition was quantified using a FLA-7000 digital image analyzer (Fujifilm, Tokyo, Japan).

[8] = test system: p53-regulated transcription in Arn8 cells; test: p53-dependent transcriptional activity, β-galactosidase reporter; format: cell-based; conditions: 24 h incubation
Procedure: Stronger anticancer activity of the compounds is enhanced by its positive impact on stability and activity of the tumour suppressor p53. To measure p53-dependent transcriptional activity, β-galactosidase activity was quantified in the melanoma cell line Arn8, which had been established using stable transfection of cells with a p53-responsive reporter construct pRGCAfoslacZ (Frebung et al., Cancer Res., 52, 1992-6976). Briefly, after 24 h incubation with the inhibitors the Arn8 cells were permeabilized with 0.3% Triton X-100 for 15 min and then 4-methylumbelliferon-β-D-galactopyranoside was added as a substrate to the final concentration of 80 μM. After 1 h the fluorescence of product 4-methylumbelliferon was measured at 355/460 nm (ex/em) with a Fluoroskan Ascent microplate reader (Labsystems). Data in Tab. 8 present that series of 2-substituted-6-biarylmethylamino-9-cyclopentyl-9H-purine derivatives show a dose-dependent activatory effect on p53-regulated transcription, with the maximum impact observed between 100 and 500 nM concentrations for most of prepared compounds (Tab. 8).

[9] = read-out: Kinase inhibition IC50, CDK1

T1 sequence (P06493 whole entry, species assumed): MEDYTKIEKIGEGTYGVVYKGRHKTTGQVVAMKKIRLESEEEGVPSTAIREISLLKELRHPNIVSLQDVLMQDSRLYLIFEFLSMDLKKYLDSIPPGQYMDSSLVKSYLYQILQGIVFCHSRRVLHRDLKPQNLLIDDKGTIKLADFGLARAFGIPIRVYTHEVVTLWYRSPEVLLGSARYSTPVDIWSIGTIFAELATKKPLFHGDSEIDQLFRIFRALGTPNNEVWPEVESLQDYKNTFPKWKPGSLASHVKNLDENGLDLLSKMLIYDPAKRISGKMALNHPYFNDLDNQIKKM
T1 sequence (P14635 whole entry partner, species assumed): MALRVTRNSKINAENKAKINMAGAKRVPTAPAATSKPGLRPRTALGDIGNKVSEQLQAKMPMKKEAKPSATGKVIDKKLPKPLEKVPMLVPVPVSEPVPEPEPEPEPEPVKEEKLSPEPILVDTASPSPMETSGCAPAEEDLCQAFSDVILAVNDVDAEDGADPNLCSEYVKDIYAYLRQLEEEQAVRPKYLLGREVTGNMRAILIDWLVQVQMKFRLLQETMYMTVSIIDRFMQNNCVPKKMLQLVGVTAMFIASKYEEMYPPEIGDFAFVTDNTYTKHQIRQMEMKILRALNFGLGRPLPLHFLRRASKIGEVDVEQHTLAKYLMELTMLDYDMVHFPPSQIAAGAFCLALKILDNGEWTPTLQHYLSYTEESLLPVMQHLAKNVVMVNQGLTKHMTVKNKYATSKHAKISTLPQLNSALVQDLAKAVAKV

Row | Compound | Relative caspase-3/7 activity in Hep3B cell line ([1]; 200 nM) | Relative caspase-3/7 activity in Hep3B cell line ([1]; 400 nM) | Relative caspase-3/7 activity in Hep3B cell line ([1]; 800 nM) | Relative caspase-3/7 activity in Hep3B cell line ([1]; 1600 nM) | Relative caspase-3/7 activity in PLC/PRF/5 cell line ([2]; compound concentration 40 nM) | Relative caspase-3/7 activity in PLC/PRF/5 cell line ([2]; compound concentration 80 nM) | Relative caspase-3/7 activity in PLC/PRF/5 cell line ([2]; compound concentration 160 nM) | Relative caspase-3/7 activity in PLC/PRF/5 cell line ([2]; compound concentration 320 nM) | Relative caspase-3/7 activity in PLC/PRF/5 cell line ([2]; compound concentration 640 nM) | Relative caspase-3/7 activity in PLC/PRF/5 cell line ([2]; compound concentration 1280 nM) | IC50 [3] | IC50 [4] | IC50 [5] | IC50 [6] | melting point | IC50 [7, 9] | Concentration of maximum activation [8] | Relative caspase-3/7 activity in Hep3B cell line ([1]; 100 nM) | IC50 ([7]; Table 12, read-out: IC50, CDK1/cyklin B)
1 | NC1CCC(Nc2nc(NCc3ccc(-c4cccs4)cc3)c3ncn(C4CCCC4)c3n2)CC1 (stereo not shown) [BP2, N^2-(4-amino-cyclohexyl)-9-cyclopentyl-N^6-(4-thiophen-2-yl-benzyl)-9H-purine-2,6-diamine] | 1.09 | 1.40 | 3.73 | 7.77 | 1.09 | 1.14 | 1.30 | 2.24 | >5.00 | >5.00 | 319 nM | 466 nM | 105 nM | 317 nM | 225 to 226 °C | 119 nM | 930 nM | – | –
2 | NC1CCC(Nc2nc(NCc3ccc(-c4ccco4)cc3)c3ncn(C4CCCC4)c3n2)CC1 (stereo not shown) [BP4, N^2-(4-amino-cyclohexyl)-9-cyclopentyl-N^6-(4-furan-2-yl-benzyl)-9H-purine-2,6-diamine] | 1.12 | 1.44 | 5.58 | 9.25 | – | – | 0.67 | 0.61 | 0.33 | 0.55 | 355 nM | 813 nM | 106 nM | 802 nM | 157 to 159 °C | 148 nM | 700 nM | – | –
3 | NC1CCC(Nc2nc(NCc3ccc(-c4ccsc4)cc3)c3ncn(C4CCCC4)c3n2)CC1 (stereo not shown) [BP5, N^2-(4-amino-cyclohexyl)-9-cyclopentyl-N^6-(4-thiophen-3-yl-benzyl)-9H-purine-2,6-diamine] | 1.09 | 1.48 | 6.65 | 8.96 | 0.65 | 1.07 | 2.22 | 3.37 | >5.00 | >5.00 | 231 nM | 454 nM | 60 nM | 420 nM | 114 to 118 °C | 183 nM | 961 nM | – | –
4 | NC1CCC(Nc2nc(NCc3ccc(-c4ccco4)nc3)c3ncn(C4CCCC4)c3n2)CC1 (stereo not shown) [BP14, N^2-(4-amino-cyclohexyl)-9-cyclopentyl-N^6-(6-furan-2-yl-pyridin-3-ylmethyl)-9H-purine-2,6-diamine] | 3.60 | 6.55 | 9.00 | 9.50 | 1.99 | 2.86 | >5.00 | >5.00 | >5.00 | >5.00 | 373 nM | 513 nM | 7 nM | 410 nM | – | 50 nM | 137 nM | 0.99 | 50 nM
